Data on 13 compounds can be found in US20250049970A1, “DLL3 TARGETING PEPTIDES AND CONSTRUCTS THEREOF” (MARIANA ONCOLOGY INC., priority 2023, published 2025).

*1 amine or outer side, *2 acyl side, *3 side chain or, on linkers, in order; H or OH if unused. Where a SMILES comes first, the peptide text is derived from it. Bridges are numbered along the chain shown (N, C = ends). [ ]: non-standard residue; d: D form. The star is where a group is joined. X7 = O=C(O)CN1CCN(CC(=O)O)CCN(CC(=O)N[C@H]2CC[C@H](CC(=O)*)CC2)CCN(CC(=O)O)CC1; Ala(piperidin-4-yl) = O=C([C@H](CC1CCN([*:3])CC1)N[*:1])[*:2]; DOTA = O=C(O)CN1CCN(CC(=O)O)CCN(CC(=O)*)CCN(CC(=O)O)CC1; Phe(4-CF3) = N[C@@H](Cc1ccc(C(F)(F)F)cc1)C(=O)O; Trp(7-Me) = Cc1cccc2c(C[C@H](N)C(=O)O)c[nH]c12; Bip = N[C@@H](Cc1ccc(-c2ccccc2)cc1)C(=O)O; 2Nal = N[C@@H](Cc1ccc2ccccc2c1)C(=O)O; oXylylene = c1ccc(C[*:2])c(C[*:1])c1; NMeH = CN[C@@H](Cc1c[nH]cn1)C(=O)O; tBuAla = CC(C)(C)C[C@H](N)C(=O)O; Chg = N[C@H](C(=O)O)C1CCCCC1; NMeNle = CCCC[C@H](NC)C(=O)O; αMeP = C[C@@]1(C(=O)O)CCCN1; CH2 = C([*:1])[*:2]

One may read the Kd as the constant that tells how readily two partners part at equilibrium.

The target in the experiment is T1, DLL3 (Homo sapiens, UniProt Q9NYJ7).
T1 sequence (Q9NYJ7 27-618): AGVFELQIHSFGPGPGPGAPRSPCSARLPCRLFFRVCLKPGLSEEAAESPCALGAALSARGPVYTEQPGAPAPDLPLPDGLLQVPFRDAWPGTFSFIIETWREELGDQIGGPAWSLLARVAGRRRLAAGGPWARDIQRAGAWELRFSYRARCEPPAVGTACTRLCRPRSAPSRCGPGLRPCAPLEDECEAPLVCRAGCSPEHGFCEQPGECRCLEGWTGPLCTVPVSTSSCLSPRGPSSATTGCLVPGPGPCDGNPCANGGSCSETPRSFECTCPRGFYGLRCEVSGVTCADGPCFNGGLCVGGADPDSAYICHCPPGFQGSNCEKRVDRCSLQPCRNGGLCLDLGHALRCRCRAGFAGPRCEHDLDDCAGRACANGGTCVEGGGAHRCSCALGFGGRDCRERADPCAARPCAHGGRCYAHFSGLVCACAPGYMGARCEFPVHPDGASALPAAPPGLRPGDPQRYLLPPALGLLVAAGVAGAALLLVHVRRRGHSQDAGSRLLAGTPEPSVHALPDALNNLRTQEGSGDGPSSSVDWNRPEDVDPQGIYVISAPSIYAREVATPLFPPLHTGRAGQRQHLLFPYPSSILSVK
Briefly: SPR KD, biotinylated human DLL3 on streptavidin chip (Table 8). More on the design: biotin (biotinylated). The following applies: biotinylated human DLL3 on streptavidin sensor chip, 25° C., 1:1 binding model; read-out: SPR KD. An excerpt: Biotinylated target ligand human DLL3 was immobilized on a streptavidin sensor chip. A reference surface was set up for nonspecific binding and refractive index changes. […] Sensorgram curves were fitted with 1:1 binding model, and affinity and kinetic parameters were obtained using Biacore Insight evaluation 4.0. software.
For the compound `CSCC[C@H](NC(C)=O)C(=O)N[C@@H](Cc1c[nH]c2ccccc12)C(=O)N[C@H](C(=O)N[C@H](C(=O)N[C@H]1CSSC[C@@H](C(=O)N[C@@H](Cc2c[nH]c3ccccc23)C(=O)N2CCC[C@H]2C(N)=O)NC(=O)[C@H](CC(=O)O)NC(=O)[C@H](Cc2cnc[nH]2)NC(=O)[C@H](Cc2c[nH]c3ccccc23)NC(=O)[C@H](CC(N)=O)NC(=O)[C@H](CC(N)=O)NC1=O)C1CCCCC1)[C@@H](C)O` [compound 44, Ac-M-W-T-(Chg)-C(3)-N-N-W-H-D-C(3)-W-P-CONH2] (Ac-MWT[Chg]CNNWHDCWP-NH2; disulfide 5-11), the Kd was in the range of 0.001 to 0.01 µM.
As for `CC(=O)N[C@@H](Cc1c[nH]c2ccccc12)C(=O)N[C@H](C(=O)N[C@H](C(=O)N[C@H]1CSSC[C@@H](C(=O)N[C@@H](Cc2c[nH]c3ccccc23)C(=O)N2CCC[C@H]2C(N)=O)NC(=O)[C@H](CC(=O)O)NC(=O)[C@H](CCCCNC(=O)C[C@H]2CC[C@H](NC(=O)CN3CCN(CC(=O)O)CCN(CC(=O)O)CCN(CC(=O)O)CC3)CC2)NC(=O)[C@H](Cc2ccc3ccccc3c2)NC(=O)[C@H](CC(N)=O)NC(=O)[C@H](CC2CCNCC2)NC1=O)C1CCCCC1)[C@@H](C)O` [compound 379, Ac-W-T-(Chg)-C(3)-[3-(4-piperidinyl)-Ala]-N-(2Nal)-Lys(Chx-DOTA)-D-C(3)-W-P-CONH2] (Ac-WT[Chg]C[Ala(piperidin-4-yl)]N[2Nal]K(X7)DCWP-NH2; disulfide 4-10), the figure is less than 0.001 µM; as for `CC[C@H](C)[C@H](NC(=O)[C@@H](NC(=O)[C@H](Cc1c[nH]c2ccccc12)NC(=O)[C@H](CCSC)NC(C)=O)[C@@H](C)O)C(=O)N[C@H]1CSSC[C@@H](C(=O)N[C@@H](Cc2c[nH]c3ccccc23)C(=O)N2CCC[C@H]2C(N)=O)NC(=O)[C@H](CC(=O)O)NC(=O)[C@H](Cc2cnc[nH]2)NC(=O)[C@H](Cc2c[nH]c3ccccc23)NC(=O)[C@H](CC(N)=O)NC(=O)[C@@H](C)NC1=O` [compound 7, Ac-M-W-T-I-C(3)-(D-Ala)-N-W-H-D-C(3)-W-P-CONH2] (Ac-MWTIC[dA]NWHDCWP-NH2; disulfide 5-11), 0.01 to 0.1 µM.
Under `CCCC[C@@H](C(=O)N[C@H]1CSCSC[C@@H](C(=O)N[C@@H](Cc2c[nH]c3ccccc23)C(=O)N2CCC[C@H]2C(N)=O)NC(=O)[C@H](CC(=O)O)NC(=O)[C@H](CCCCNC(=O)CN2CCN(CC(=O)O)CCN(CC(=O)O)CCN(CC(=O)O)CC2)NC(=O)[C@H](Cc2ccc3ccccc3c2)NC(=O)[C@H](CC(N)=O)NC(=O)[C@H](CC2CCNCC2)NC1=O)N(C)C(=O)[C@@H](NC(=O)[C@H](Cc1c[nH]c2c(C)cccc12)NC(C)=O)[C@@H](C)O` [compound 431, Ac-(7Me-Trp)-T-(NMe-Nle)-C(1)-[3-(4-piperidinyl)-Ala]-N-(2Nal)-Lys(DOTA)-D-C(1)-W-P-CONH2] (Ac-[Trp(7-Me)]T[NMeNle]C[Ala(piperidin-4-yl)]N[2Nal]K(DOTA)DCWP-NH2; linker 4-10 via CH2) stands less than 0.001 µM.
`CC[C@H](C)[C@H](NC(=O)[C@@H](NC(=O)[C@H](Cc1ccc(C(F)(F)F)cc1)NC(C)=O)[C@@H](C)O)C(=O)N[C@H]1CSSC[C@@H](C(=O)N[C@@H](Cc2c[nH]c3ccccc23)C(=O)N2CCC[C@H]2C(N)=O)NC(=O)[C@H](CC(=O)O)NC(=O)[C@H](Cc2cnc[nH]2)NC(=O)[C@H](Cc2c[nH]c3ccccc23)NC(=O)[C@H](CC(N)=O)NC(=O)[C@H](CC(N)=O)NC1=O` [compound 215, Ac-(4CF3-F)-T-I-C(3)-N-N-W-H-D-C(3)-W-P-CONH2] (Ac-[Phe(4-CF3)]TICNNWHDCWP-NH2; disulfide 4-10): the Kd fell in the range of 0.01 to 0.1 µM.
As for `CC[C@H](C)[C@H](NC(=O)[C@@H](NC(=O)[C@H](Cc1c[nH]c2ccccc12)NC(C)=O)[C@@H](C)O)C(=O)N[C@H]1CSSC[C@@H](C(=O)N[C@@H](Cc2c[nH]c3ccccc23)C(=O)N2CCC[C@H]2C(N)=O)NC(=O)[C@H](CC(=O)O)NC(=O)[C@H](Cc2cnc[nH]2)N(C)C(=O)[C@H](Cc2c[nH]c3ccccc23)NC(=O)[C@H](CC(N)=O)NC(=O)[C@H](CC(N)=O)NC1=O` [compound 387, Ac-W-T-I-C(3)-N-N-W-(NmeH)-D-C(3)-W-P-CONH2] (Ac-WTICNNW[NMeH]DCWP-NH2; disulfide 4-10), the figure is 0.01 to 0.1 µM; as for `CC(=O)N[C@@H](Cc1c[nH]c2ccccc12)C(=O)N[C@H](C(=O)N[C@H](C(=O)N[C@H]1CSCc2ccccc2CSC[C@@H](C(=O)N[C@@H](Cc2c[nH]c3ccccc23)C(=O)N2CCC[C@H]2C(N)=O)NC(=O)[C@H](CC(=O)O)NC(=O)[C@H](CCCCNC(=O)CN2CCN(CC(=O)O)CCN(CC(=O)O)CCN(CC(=O)O)CC2)NC(=O)[C@H](Cc2ccc3ccccc3c2)NC(=O)[C@H](CC(N)=O)NC(=O)[C@H](CC2CCNCC2)NC1=O)C1CCCCC1)[C@@H](C)O` [compound 401, Ac-W-T-(Chg)-C(oDBX)-[3-(4-piperidinyl)-Ala]-N-(2Nal)-Lys(DOTA)-D-C(3)-W-P-CONH2] (Ac-WT[Chg]C[Ala(piperidin-4-yl)]N[2Nal]K(DOTA)DCWP-NH2; linker 4-10 via oXylylene), 0.001 to 0.01 µM.
As for `CC[C@H](C)[C@H](NC(=O)[C@@H](NC(=O)[C@H](Cc1c[nH]c2ccccc12)NC(=O)[C@H](CCSC)NC(C)=O)[C@@H](C)O)C(=O)N[C@H]1CSSC[C@@H](C(=O)N[C@@H](Cc2c[nH]c3ccccc23)C(=O)N2CCC[C@H]2C(N)=O)NC(=O)[C@H](CC(=O)O)NC(=O)[C@H](Cc2cnc[nH]2)NC(=O)[C@H](Cc2c[nH]c3ccccc23)NC(=O)[C@H](CC(N)=O)NC(=O)[C@H](CC(N)=O)NC1=O` [compound 1] (Ac-MWTICNNWHDCWP-NH2; disulfide 5-11), the figure is 0.001 to 0.01 µM; as for `CC[C@H](C)[C@H](NC(=O)[C@@H](NC(=O)[C@H](Cc1c[nH]c2ccccc12)NC(C)=O)[C@@H](C)O)C(=O)N[C@H]1CSSC[C@@H](C(=O)N[C@@H](Cc2c[nH]c3ccccc23)C(=O)N2CCC[C@H]2C(N)=O)NC(=O)[C@H](CC(=O)O)NC(=O)[C@H](Cc2cnc[nH]2)NC(=O)[C@H](Cc2ccc(-c3ccccc3)cc2)NC(=O)[C@H](CC(N)=O)NC(=O)[C@H](CC(N)=O)NC1=O` [compound 53, Ac-W-T-I-C(3)-N-N-(BIP)-H-D-C(3)-W-P-CONH2] (Ac-WTICNN[Bip]HDCWP-NH2; disulfide 4-10), 0.01 to 0.1 µM; as for `CC(=O)N[C@@H](Cc1c[nH]c2ccccc12)C(=O)N[C@H](C(=O)N[C@@H](CC(C)(C)C)C(=O)N[C@H]1CSCSC[C@@H](C(=O)N[C@@H](Cc2c[nH]c3ccccc23)C(=O)N2CCC[C@H]2C(N)=O)NC(=O)[C@H](CC(=O)O)NC(=O)[C@H](CCCCNC(=O)CN2CCN(CC(=O)O)CCN(CC(=O)O)CCN(CC(=O)O)CC2)NC(=O)[C@H](Cc2ccc3ccccc3c2)NC(=O)[C@H](CC(N)=O)NC(=O)[C@H](CC2CCNCC2)NC1=O)[C@@H](C)O` [compound 94] (Ac-WT[tBuAla]C[Ala(piperidin-4-yl)]N[2Nal]K(DOTA)DCWP-NH2; linker 4-10 via CH2), less than 0.001 µM.
On to `CCCC[C@@H](C(=O)N[C@H]1CSCSC[C@@H](C(=O)N[C@@H](Cc2c[nH]c3ccccc23)C(=O)N2CCC[C@H]2C(N)=O)NC(=O)[C@H](CC(=O)O)NC(=O)[C@H](CCCCNC(=O)CN2CCN(CC(=O)O)CCN(CC(=O)O)CCN(CC(=O)O)CC2)NC(=O)[C@H](Cc2ccc3ccccc3c2)NC(=O)[C@H](CC(N)=O)NC(=O)[C@H](CC2CCNCC2)NC1=O)N(C)C(=O)[C@@H](NC(=O)[C@H](Cc1c[nH]c2ccccc12)NC(C)=O)[C@@H](C)O` [compound 400, Ac-W-T-(NMe-Nle)-C(1)-[3-(4-piperidinyl)-Ala]-N-(2Nal)-Lys(DOTA)-D-C(1)-W-P-CONH2] (Ac-WT[NMeNle]C[Ala(piperidin-4-yl)]N[2Nal]K(DOTA)DCWP-NH2; linker 4-10 via CH2), for which the Kd is less than 0.001 µM.
Under `CC(=O)N[C@@H](Cc1c[nH]c2ccccc12)C(=O)N[C@H](C(=O)N[C@@H](CC(C)(C)C)C(=O)N[C@H]1CSCSC[C@@H](C(=O)N[C@@H](Cc2c[nH]c3ccccc23)C(=O)N2CCC[C@@]2(C)C(=O)O)NC(=O)[C@H](CC(=O)O)NC(=O)[C@H](CCCCNC(=O)CN2CCN(CC(=O)O)CCN(CC(=O)O)CCN(CC(=O)O)CC2)NC(=O)[C@H](Cc2ccc3ccccc3c2)NC(=O)[C@H](CC(N)=O)NC(=O)[C@H](CC2CCNCC2)NC1=O)[C@@H](C)O` [compound 436, Ac-W-T-(t-Bu-Ala)-C(1)-[3-(4-piperidinyl)-Ala]-N-(2Nal)-Lys(DOTA)-D-C(1)-W-(aMe-P)-COOH] (Ac-WT[tBuAla]C[Ala(piperidin-4-yl)]N[2Nal]K(DOTA)DCW[αMeP]-OH; linker 4-10 via CH2) stands less than 0.001 µM; under `CC[C@H](C)[C@H](NC(=O)[C@@H](NC(=O)[C@H](Cc1c[nH]c2ccccc12)NC(C)=O)[C@@H](C)O)C(=O)N[C@H]1CSSC[C@@H](C(=O)N[C@@H](Cc2c[nH]c3ccccc23)C(=O)N2CCC[C@H]2C(=O)N[C@H](CCCCNC(=O)CN2CCN(CC(=O)O)CCN(CC(=O)O)CCN(CC(=O)O)CC2)C(N)=O)NC(=O)[C@H](CC(=O)O)NC(=O)[C@H](Cc2cnc[nH]2)NC(=O)[C@H](Cc2ccc3ccccc3c2)NC(=O)[C@H](CC(N)=O)NC(=O)[C@H](CCCCNC(=O)CN2CCN(CC(=O)O)CCN(CC(=O)O)CCN(CC(=O)O)CC2)NC1=O` [compound 247] (Ac-WTICK(DOTA)N[2Nal]HDCWP[dK](DOTA)-NH2; disulfide 4-10), less than 0.001 µM.
